Literature values as cited in patent US20220000871A1, “METHODS AND COMPOSITIONS FOR TREATING NEURODEGENERATIVE DISEASES USING MODULATORS OF PHOSPHOGLYCERATE KINASE 1 (PGK1) ACTIVITY” (UNIVERSITY OF IOWA RESEARCH FOUNDATION, priority 2019, published 2022).

Assays:
[1] = target: T1, phosphoglycerate kinase 1 (PGK1) (Homo sapiens, UniProt P00558); conditions: reference 18; cited from earlier work
T1 sequence (P00558 1-417): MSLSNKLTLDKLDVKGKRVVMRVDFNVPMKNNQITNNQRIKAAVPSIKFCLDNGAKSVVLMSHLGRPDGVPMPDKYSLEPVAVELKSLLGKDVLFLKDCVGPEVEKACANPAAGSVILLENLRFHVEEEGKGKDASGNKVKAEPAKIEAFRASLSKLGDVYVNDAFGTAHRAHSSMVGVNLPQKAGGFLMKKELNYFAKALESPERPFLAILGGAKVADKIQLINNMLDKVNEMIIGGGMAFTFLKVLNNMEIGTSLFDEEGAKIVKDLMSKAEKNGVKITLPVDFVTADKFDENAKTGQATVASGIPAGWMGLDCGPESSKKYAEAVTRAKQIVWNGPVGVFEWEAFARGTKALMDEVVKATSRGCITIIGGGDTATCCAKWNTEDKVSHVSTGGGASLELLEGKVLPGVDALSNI

cultured cells = conditions: reference 18, cited from earlier work

COc1cc2nc(N3CCN(C(=O)C4CCCO4)CC3)nc(N)c2cc1OC (stereo not drawn) [TZ, terazosin]
effect on PGK1 [1]: binds and activates | apoptosis in cultured cells (cultured cells): inhibited | PGK1 activity in cultured cells (cultured cells; thereby increasing ATP levels): enhanced
